Laboratory results from ChEMBL document CHEMBL5113489, “Design, synthesis, and biological evaluation of membrane-active honokiol derivatives as potent antibacterial agents” (Eur J Med Chem, 2022).
Active and inactive are the calls of the source. No cut-off for these calls is given here.

Columns and labels:
Escherichia coli [1] = test: Antibacterial activity against Escherichia coli ATCC 25922 assessed as bacterial killing at 8XMIC incubated for 3 hrs and measured by time-kill kinetic study; assay type: functional
Staphylococcus aureus [2] = test: Anti-biofilm activity in Staphylococcus aureus ATCC 43300 assessed as inhibition of biofilm formation at 1 ug/ml; assay type: functional
[3] = Cytotoxicity against human HepG2 cells assessed as cell viability at 8 ug/ml measured by SRB assay; assay type: toxicity, cell-based; settings: at 8 µg/mL, read-out: Activity
Staphylococcus aureus [4] = test: Anti-biofilm activity in Staphylococcus aureus ATCC 43300 assessed as disruption rate of biofilm at 0.5 ug/ml measured by crystal violet staining method; assay type: functional; settings: dose 0.5 µg/ml
[5] = Toxicity in septicemia mouse model infected with Staphylococcus aureus ATCC 43300 assessed as effect on kidney at 5 to 10 mg/kg, administered every 12 hrs for 3 days measured by histopathological analysis; assay type: organism-based; settings: in vivo, dose 5-10 mg/kg
Staphylococcus aureus [6] = test: Anti-biofilm activity in Staphylococcus aureus ATCC 43300 assessed as inhibition of biofilm formation at 2 ug/ml; assay type: functional
Escherichia coli [7] = test: Anti-biofilm activity in Escherichia coli ATCC 25922 assessed as inhibition of biofilm formation at 8 ug/ml; assay type: functional
Escherichia coli [8] = test: Antibacterial activity against Escherichia coli ATCC 25922; assay type: functional
Staphylococcus aureus [9] = test: In vivo antibacterial activity against Staphylococcus aureus ATCC 43300 in septicemia mouse model assessed as reduction in bacterial load in liver at 10 mg/kg, administered every 12 hrs for 3 days; assay type: functional; set-up: scale not given: the % may be the effect or the level left
Escherichia coli [10] = test: Anti-biofilm activity in Escherichia coli ATCC 25922 assessed as inhibition of biofilm formation at 4 ug/ml; assay type: functional
Staphylococcus aureus [11] = test: In vivo antibacterial activity against Staphylococcus aureus ATCC 43300 in septicemia mouse model assessed as reduction in bacterial load in spleen at 10 mg/kg, administered every 12 hrs for 3 days; assay type: functional; set-up: scale not given: the % may be the effect or the level left
Escherichia coli [12] = test: Antibacterial activity against Escherichia coli ATCC 25922 assessed as resistance development by measuring fold increase in MIC; assay type: functional
Staphylococcus aureus [13] = test: Anti-biofilm activity in Staphylococcus aureus ATCC 43300 assessed as inhibition of biofilm formation at 8 ug/ml; assay type: functional
Staphylococcus aureus [14] = test: Antibacterial activity against Staphylococcus aureus ATCC 43300; assay type: functional
Escherichia coli [15] = test: Anti-biofilm activity in Escherichia coli ATCC 25922 assessed as disruption rate of biofilm at 32 ug/ml measured by crystal violet staining method; assay type: functional; settings: dose 32 µg/ml
Escherichia coli [16] = test: Anti-biofilm activity in Escherichia coli ATCC 25922 assessed as inhibition of biofilm formation at 16 ug/ml; assay type: functional
Staphylococcus aureus [17] = test: In vivo antibacterial activity against Staphylococcus aureus ATCC 43300 in septicemia mouse model assessed as log reduction in bacterial load in kidney at 10 mg/kg, administered every 12 hrs for 3 days; assay type: functional
[18] = Cytotoxicity against human HepG2 cells assessed as cell viability at 32 ug/ml measured by SRB assay; assay type: toxicity, cell-based; settings: at 32 µg/mL, read-out: Activity
[19] = Cytotoxicity against human HepG2 cells assessed as cell viability at 16 ug/ml measured by SRB assay; assay type: toxicity, cell-based; settings: at 16 µg/mL, read-out: Activity
Staphylococcus aureus [20] = test: Antibacterial activity against Staphylococcus aureus ATCC 31007; assay type: functional
Cell membrane [21] = test: Induction of cytoplasmic membrane depolarization in Staphylococcus aureus ATCC 43300 assessed as increase in fluorescence intensity at 1 to 8 times MIC measured by DiSC3-5 dye based fluorescence method; assay type: subcellular
Cell membrane [22] = test: Induction of inner membrane permeabilization in Staphylococcus aureus ATCC 43300 assessed as increase in PI uptake by measuring increase in fluorescence intensity at 1 to 8 ug/ml by propidium iodide staining based fluorescence analysis; assay type: subcellular; settings: dose 1-8 µg/ml

C=CCc1ccc(OCCC[N+](C)(C)CCCCCC)c(-c2ccc(OCCC[N+](C)(C)CCCCCC)c(CC=C)c2)c1.[Br-].[Br-]
Activity (Escherichia coli [1]): 100%
inhibition at 1 µg/mL (Staphylococcus aureus [2]): 12.9%
viability at 8 ug/ml [3]: 90.3%
Activity (Staphylococcus aureus [4]): 5.22%
Activity [5]: Non-Toxic
inhibition at 2 µg/mL (Staphylococcus aureus [6]): 20.1%
inhibition at 8 µg/mL (Escherichia coli [7]): 49.3%
MIC (Escherichia coli [8]): 4 µg/mL
Activity (Staphylococcus aureus [9]): 99.5%
inhibition at 4 µg/mL (Escherichia coli [10]): 35.3%
Activity (Staphylococcus aureus [11]): 99.3%
fold change (FC) (Escherichia coli [12]): <4
inhibition at 8 µg/mL (Staphylococcus aureus [13]): 93.7%
MIC (Staphylococcus aureus [14]): 1 µg/mL
Activity (Escherichia coli [15]): 57.36%
inhibition at 16 µg/mL (Escherichia coli [16]): 65.4%
log(activity) (Staphylococcus aureus [17]): 1.94
viability at 32 ug/ml [18]: 68.1%
viability at 16 ug/ml [19]: 85.4%
MIC (Staphylococcus aureus [20]): 0.5 µg/mL
Activity (Cell membrane [21]): Active
Activity (Cell membrane [22]): Active
